{"source": "ChEMBL document CHEMBL1122784", "about": "“Antitumor imidazotetrazines. 1. Synthesis and chemistry of 8-carbamoyl-3-(2-chloroethyl)imidazo[5,1-d]-1,2,3,5-tetrazin-4(3 H)-one , a novel broad-spectrum antitumor agent” (J Med Chem, 1984)", "key": {"[1]": {"tested_on": "Mus musculus", "test": "Compound was evaluated for number of survivors in P388 leukemia implanted BDF1 mice on day 0 after ip administration of 40 mg/kg/day on day 60 out of 5 mice", "format": "functional", "settings": "route intraperitoneal"}, "[2]": {"tested_on": "Mus musculus", "test": "Compound was evaluated for %T/C in P388 leukemia implanted BDF1 mice on day 0 after ip administration of 5 mg/kg/day on day 1", "format": "functional", "settings": "route intraperitoneal"}, "[3]": {"tested_on": "Mus musculus", "test": "Compound was evaluated for %T/C in L1210 leukemia implanted BDF1 mice on day 0 after ip administration of 40 mg/kg/day on day 1", "format": "functional", "settings": "route intraperitoneal"}, "[4]": {"tested_on": "Mus musculus", "test": "Compound was evaluated for %T/C in P388 leukemia implanted BDF1 mice on day 0 after ip administration of 5 mg/kg/day on day 1-5", "format": "functional", "settings": "route intraperitoneal"}, "[5]": {"tested_on": "Mus musculus", "test": "Compound was evaluated for %T/C in L1210 leukemia implanted BDF1 mice on day 0 after ip administration of 2.5 mg/kg/day on day 1-5", "format": "functional", "settings": "route intraperitoneal"}, "[6]": {"tested_on": "Mus musculus", "test": "Compound was evaluated for %T/C in P388 leukemia implanted BDF1 mice on day 0 after ip administration of 20 mg/kg/day on day 1", "format": "functional", "settings": "route intraperitoneal"}, "[7]": {"tested_on": "Mus musculus", "test": "Compound was tested for mortality in P388 leukemia implanted BDF1 mice on day 0 after ip administration of 25 mg/kg/day on day 1-5 out of 6 mice", "format": "functional", "settings": "route intraperitoneal"}, "[8]": {"tested_on": "Mus musculus", "test": "Compound was tested for mortality in L1210 leukemia implanted BDF1 mice on day 0 after ip administration of 3.12 mg/kg/day on day 1-9 out of 6 mice", "format": "functional", "settings": "route intraperitoneal"}, "[9]": {"tested_on": "Mus musculus", "test": "Compound was evaluated for %T/C in P388 leukemia implanted BDF1 mice on day 0 after ip administration of 20 mg/kg/day on day 1-5", "format": "functional", "settings": "route intraperitoneal"}, "[10]": {"tested_on": "Mus musculus", "test": "Compound was tested for mortality in P388 leukemia implanted BDF1 mice on day 0 after ip administration of 5 mg/kg/day on day 1 out of 5 mice", "format": "functional", "settings": "route intraperitoneal"}, "[11]": {"tested_on": "Mus musculus", "test": "Compound was tested for mortality in L1210 leukemia implanted BDF1 mice on day 0 after ip administration of 20 mg/kg/day on day 1 out of 5 mice", "format": "functional", "settings": "route intraperitoneal"}, "[12]": {"tested_on": "Mus musculus", "test": "Compound was evaluated for number of survivors in L1210 leukemia implanted BDF1 mice on day 0 after ip administration of 6.25 mg/kg/day on day 60 out of 6 mice", "format": "functional", "settings": "route intraperitoneal"}, "[13]": {"tested_on": "Mus musculus", "test": "Compound was evaluated for number of survivors in L1210 leukemia implanted BDF1 mice on day 0 after ip administration of 7.5 mg/kg/day on day 60 out of 5 mice", "format": "functional", "settings": "route intraperitoneal"}, "[14]": {"tested_on": "Mus musculus", "test": "Compound was tested for mortality in P388 leukemia implanted BDF1 mice on day 0 after ip administration of 6.25 mg/kg/day on day 1-5 out of 6 mice", "format": "functional", "settings": "route intraperitoneal"}, "[15]": {"tested_on": "Mus musculus", "test": "Compound was tested for mortality in L1210 leukemia implanted BDF1 mice on day 0 after ip administration of 2.5 mg/kg/day on day 1-5 out of 5 mice", "format": "functional", "settings": "route intraperitoneal"}, "[16]": {"tested_on": "Mus musculus", "test": "Compound was tested for mortality in L1210 leukemia implanted BDF1 mice on day 0 after ip administration of 7.5 mg/kg/day on day 1-5 out of 5 mice", "format": "functional", "settings": "route intraperitoneal"}, "[17]": {"test": "Half-life period in phosphate buffer at pH 7.4 in the dark at 28 degrees celsius.", "format": "ADME"}, "[18]": {"tested_on": "Mus musculus", "test": "Compound was evaluated for %T/C in L1210 leukemia implanted BDF1 mice on day 0 after ip administration of 3.12 mg/kg/day on day 1-9", "format": "functional", "settings": "route intraperitoneal"}, "[19]": {"tested_on": "Mus musculus", "test": "Compound was evaluated for %T/C in L1210 leukemia implanted BDF1 mice on day 0 after ip administration of 10 mg/kg/day on day 1-5", "format": "functional", "settings": "route intraperitoneal"}, "[20]": {"tested_on": "Mus musculus", "test": "Compound was evaluated for number of survivors in L1210 leukemia implanted BDF1 mice on day 0 after ip administration of 50 mg/kg/day on day 60 out of 6 mice", "format": "functional", "settings": "route intraperitoneal"}, "[21]": {"tested_on": "Mus musculus", "test": "Compound was tested for mortality in P388 leukemia implanted BDF1 mice on day 0 after ip administration of 80 mg/kg/day on day 1 out of 5 mice", "format": "functional", "settings": "route intraperitoneal"}, "[22]": {"tested_on": "Mus musculus", "test": "(§1) Compound was evaluated for number of survivors in P388 leukemia implanted BDF1 mice on day 0 after ip administration of 20 mg/kg/day on day 60 out of 5 mice", "format": "functional", "settings": "route intraperitoneal"}, "[23]": {"tested_on": "Mus musculus", "test": "Compound was evaluated for %T/C in P388 leukemia implanted BDF1 mice on day 0 after ip administration of 2.5 mg/kg/day on day 1-5", "format": "functional", "settings": "route intraperitoneal"}, "[24]": {"tested_on": "Mus musculus", "test": "Compound was evaluated for %T/C in P388 leukemia implanted BDF1 mice on day 0 after ip administration of 40 mg/kg/day on day 1", "format": "functional", "settings": "route intraperitoneal"}, "[25]": {"tested_on": "Mus musculus", "test": "Compound was tested for mortality in L1210 leukemia implanted BDF1 mice on day 0 after ip administration of 25 mg/kg/day on day 1-9 out of 6 mice", "format": "functional", "settings": "route intraperitoneal"}, "[26]": {"tested_on": "Mus musculus", "test": "Compound was tested for mortality in P388 leukemia implanted BDF1 mice on day 0 after ip administration of 2.5 mg/kg/day on day 1-5 out of 5 mice", "format": "functional", "settings": "route intraperitoneal"}, "[27]": {"tested_on": "Mus musculus", "test": "Compound was evaluated for %T/C in L1210 leukemia implanted BDF1 mice on day 0 after ip administration of 80 mg/kg/day on day 1", "format": "functional", "settings": "route intraperitoneal"}, "[28]": {"tested_on": "Mus musculus", "test": "Compound was evaluated for %T/C in P388 leukemia implanted BDF1 mice on day 0 after ip administration of 6.25 mg/kg/day on day 1-5", "format": "functional", "settings": "route intraperitoneal"}, "[29]": {"tested_on": "Mus musculus", "test": "Compound was evaluated for %T/C in P388 leukemia implanted BDF1 mice on day 0 after ip administration of 25 mg/kg/day on day 1-5", "format": "functional", "settings": "route intraperitoneal"}, "[30]": {"tested_on": "Mus musculus", "test": "Compound was tested for mortality in L1210 leukemia implanted BDF1 mice on day 0 after ip administration of 40 mg/kg/day on day 1 out of 5 mice", "format": "functional", "settings": "route intraperitoneal"}, "[31]": {"tested_on": "Mus musculus", "test": "Compound was evaluated for %T/C in L1210 leukemia implanted BDF1 mice on day 0 after ip administration of 25 mg/kg/day on day 1-9", "format": "functional", "settings": "route intraperitoneal"}, "[32]": {"tested_on": "Mus musculus", "test": "as §1", "format": "functional", "settings": "route intraperitoneal", "remark": "listed apart in the source"}, "[33]": {"tested_on": "Mus musculus", "test": "Compound was evaluated for %T/C in L1210 leukemia implanted BDF1 mice on day 0 after ip administration of 20 mg/kg/day on day 1", "format": "functional", "settings": "route intraperitoneal"}, "[34]": {"tested_on": "Mus musculus", "test": "Compound was tested for mortality in P388 leukemia implanted BDF1 mice on day 0 after ip administration of 40 mg/kg/day on day 1 out of 5 mice", "format": "functional", "settings": "route intraperitoneal"}, "[35]": {"tested_on": "Mus musculus", "test": "Compound was tested for mortality in P388 leukemia implanted BDF1 mice on day 0 after ip administration of 5 mg/kg/day on day 1-5 out of 5 mice", "format": "functional", "settings": "route intraperitoneal"}, "[36]": {"tested_on": "Mus musculus", "test": "Compound was evaluated for number of survivors in P388 leukemia implanted BDF1 mice on day 0 after ip administration of 12.5 mg/kg/day on day 60 out of 6 mice", "format": "functional", "settings": "route intraperitoneal"}, "[37]": {"tested_on": "Mus musculus", "test": "Compound was evaluated for number of survivors in L1210 leukemia implanted BDF1 mice on day 0 after ip administration of 3.12 mg/kg/day on day 60 out of 6 mice", "format": "functional", "settings": "route intraperitoneal"}, "[38]": {"test": "Half-life period in 95% ethanol in diffuse laboratory light at 28 degrees celsius.", "format": "ADME"}, "[39]": {"tested_on": "Mus musculus", "test": "Compound was evaluated for number of survivors in P388 leukemia implanted BDF1 mice on day 0 after ip administration of 50 mg/kg/day on day 60 out of 5 mice", "format": "functional", "settings": "route intraperitoneal"}, "[40]": {"tested_on": "Mus musculus", "test": "Compound was evaluated for number of survivors in P388 leukemia implanted BDF1 mice on day 0 after ip administration of 7.5 mg/kg/day on day 60 out of 5 mice", "format": "functional", "settings": "route intraperitoneal"}}}
{"smiles": "NC(=O)c1ncn2c(=O)n(CCCl)nnc12", "note": "[MITOZOLOMIDE]", "values": [{"measurement": "Survivors", "setting": "[1]", "result": 5}, {"measurement": "T/C", "setting": "[2]", "result": 132, "unit": "%"}, {"measurement": "T/C", "setting": "[3]", "result": ">740", "unit": "%"}, {"measurement": "T/C", "setting": "[4]", "result": 277, "unit": "%"}, {"measurement": "T/C", "setting": "[5]", "result": 112, "unit": "%"}, {"measurement": "T/C", "setting": "[6]", "result": ">600", "unit": "%"}, {"measurement": "Mortality", "setting": "[7]", "result": 0}, {"measurement": "Mortality", "setting": "[8]", "result": 0}, {"measurement": "T/C", "setting": "[9]", "result": ">555", "unit": "%"}, {"measurement": "Mortality", "setting": "[10]", "result": 0}, {"measurement": "Mortality", "setting": "[11]", "result": 0}, {"measurement": "Survivors", "setting": "[12]", "result": 0}, {"measurement": "Survivors", "setting": "[13]", "result": 0}, {"measurement": "Mortality", "setting": "[14]", "result": 1}, {"measurement": "Mortality", "setting": "[15]", "result": 0}, {"measurement": "Mortality", "setting": "[16]", "result": 0}, {"measurement": "half-life", "setting": "[17]", "result": 1.63, "unit": "h"}, {"measurement": "T/C", "setting": "[18]", "result": 147, "unit": "%"}, {"measurement": "T/C", "setting": "[19]", "result": ">577", "unit": "%"}, {"measurement": "Survivors", "setting": "[20]", "result": 0}, {"measurement": "Mortality", "setting": "[21]", "result": 0}, {"measurement": "Survivors", "setting": "[22]", "result": 5}, {"measurement": "T/C", "setting": "[23]", "result": 148, "unit": "%"}, {"measurement": "T/C", "setting": "[24]", "result": ">600", "unit": "%"}, {"measurement": "Mortality", "setting": "[25]", "result": 0}, {"measurement": "Mortality", "setting": "[26]", "result": 0}, {"measurement": "T/C", "setting": "[27]", "result": 177, "unit": "%"}, {"measurement": "T/C", "setting": "[28]", "result": 180, "unit": "%"}, {"measurement": "T/C", "setting": "[29]", "result": 387, "unit": "%"}, {"measurement": "Mortality", "setting": "[30]", "result": 0}, {"measurement": "T/C", "setting": "[31]", "result": ">745", "unit": "%"}, {"measurement": "Survivors", "setting": "[32]", "result": 5}, {"measurement": "T/C", "setting": "[33]", "result": 198, "unit": "%"}, {"measurement": "Mortality", "setting": "[34]", "result": 0}, {"measurement": "Mortality", "setting": "[35]", "result": 0}, {"measurement": "Survivors", "setting": "[36]", "result": 1}, {"measurement": "Survivors", "setting": "[37]", "result": 0}, {"measurement": "half-life", "setting": "[38]", "result": 1.17, "unit": "h"}, {"measurement": "Survivors", "setting": "[39]", "result": 0}, {"measurement": "Survivors", "setting": "[40]", "result": 5}]}
